PubChem BioAssay AID330 (DTP/NCI, 2004)
Several values for one entry are separate records, joined by “and”; a condition that tells them apart may be missing. Equal values may be shown once. Inconclusive results and toxic doses are left out. How the source made its calls: active means survival T/C of 150% or more; inactive means T/C below 125% in these data. Peptide text beside a SMILES is read from it. * marks the point of attachment. Boc = CC(C)(C)OC(=O)*; NHNH2 = NN*

Tested on: P388 leukemia ip, CD2F1 mice, survival T/C
Assay: NCI In Vivo Anticancer Drug Screen. Data for tumor model P388 Leukemia (intraperitoneal) in CD2F1 (CDF1) mice
Settings: endpoint: median survival time, higher = longer survival
Procedure, shortened: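 Mice carrying the transplanted tumor received test compound or vehicle. Survival was recorded in each group, and the value is the treated-group measurement divided by that of the vehicle-treated control group.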

[1] = dose: 50.0 mg/kg/injection, schedule: Q01DX005 (ip), vehicle: saline with Tween-80
[2] = dose: 100.0 mg/kg/injection, schedule: Q01DX005 (ip), vehicle: saline with Tween-80
[3] = dose: 200.0 mg/kg/injection, schedule: Q01DX005 (ip), vehicle: saline with Tween-80
[4] = dose: 100.0 mg/kg/injection, schedule: Q04DX002 (ip), vehicle: saline with Tween-80
[5] = dose: 200.0 mg/kg/injection, schedule: Q04DX002 (ip), vehicle: saline with Tween-80
[6] = dose: 25.0 mg/kg/injection, schedule: Q01DX005 (ip), vehicle: Klucel (hydroxypropylcellulose) (HPC)
[7] = dose: 50.0 mg/kg/injection, schedule: Q01DX005 (ip), vehicle: Klucel (hydroxypropylcellulose) (HPC)
[8] = dose: 50.0 mg/kg/injection, schedule: Q01DX009 (ip), vehicle: saline with Tween-80
[9] = dose: 100.0 mg/kg/injection, schedule: Q01DX009 (ip), vehicle: saline with Tween-80
[10] = dose: 200.0 mg/kg/injection, schedule: Q01DX009 (ip), vehicle: saline with Tween-80
[11] = dose: 60.0 mg/kg/injection, schedule: Q01DX005 (ip), vehicle: saline with Tween-80
[12] = dose: 120.0 mg/kg/injection, schedule: Q01DX005 (ip), vehicle: saline with Tween-80
[13] = dose: 60.0 mg/kg/injection, schedule: Q01DX005 (ip), vehicle: Klucel (hydroxypropylcellulose) (HPC)
[14] = dose: 120.0 mg/kg/injection, schedule: Q01DX005 (ip), vehicle: Klucel (hydroxypropylcellulose) (HPC)
[15] = dose: 100.0 mg/kg/injection, schedule: Q01DX005 (ip), vehicle: Klucel (hydroxypropylcellulose) (HPC)
[16] = dose: 200.0 mg/kg/injection, schedule: Q01DX005 (ip), vehicle: Klucel (hydroxypropylcellulose) (HPC)

Measured: T/C

COc1cccc2c1C(=O)c1c(O)c3c(c(O)c1C2=O)C[C@@](O)(C(C)=O)[C@@H](OC)[C@@H]3OC1CC(N)C(O)C(C)O1 (stereo partly drawn)
inactive: dose: 0.6 mg/kg/injection, schedule: Q04DX003 (ip), vehicle: water 103 % of control | dose: 1.2 mg/kg/injection, schedule: Q04DX003 (ip), vehicle: water 122 % of control | dose: 2.4 mg/kg/injection, schedule: Q04DX003 (ip), vehicle: water 108 % of control | dose: 2.5 mg/kg/injection, schedule: Q04DX003 (ip), vehicle: water 108 % of control | dose: 4.8 mg/kg/injection, schedule: Q04DX003 (ip), vehicle: water 123 % of control | dose: 5.0 mg/kg/injection, schedule: Q04DX003 (ip), vehicle: water 108 % of control

Cc1cc(C)n(-c2ccc(S(=O)(=O)N3CCC(=O)N(Cc4ccccc4)C3=S)cc2)n1
inactive: [1] 100 % of control | [2] 93 % of control | [3] 93 % of control

OC1(C2CCCC2)C2C=CC1C1CCCCCCC12 (stereo not drawn)
inactive: [4] 100 % of control | [5] 100 % of control | dose: 400.0 mg/kg/injection, schedule: Q04DX002 (ip), vehicle: saline with Tween-80 97 % of control

[Cu+2].[O-]/C(=N\N=C\c1ccccn1)c1ccccc1O.[O-]/C(=N\N=C\c1ccccn1)c1ccccc1O
inactive: dose: 50.0 mg/kg/injection, schedule: Q04DX002 (ip), vehicle: saline with Tween-80 98 % of control | [4] 95 % of control | [5] 94 % of control

NC(=O)N1CCC2c3ccccc3NC(=S)N21 (stereo not drawn)
inactive: dose: 100.0 mg/kg/injection, schedule: Q01DX001 (ip), vehicle: saline with Tween-80 102 % of control | dose: 200.0 mg/kg/injection, schedule: Q01DX001 (ip), vehicle: saline with Tween-80 99 % of control | dose: 400.0 mg/kg/injection, schedule: Q01DX001 (ip), vehicle: saline with Tween-80 99 % of control

CN1N=C(C2=NN(C)C(=O)N(C)N2)NN(C)C1=O
inactive: dose: 12.5 mg/kg/injection, schedule: Q01DX005 (ip), vehicle: Klucel (hydroxypropylcellulose) (HPC) 101 % of control | [6] 97 % of control | [7] 104 % of control and 105 % of control

CCCCC(O)(CCCC)/C(C)=N/O
inactive: [8] 94 % of control | [9] 91 % of control | [10] 87 % of control

CC(C)(C)OC(=O)NC(Cc1c[nH]c2ccccc12)C(=O)NC(CS)C(=O)NN (stereo not drawn) (Boc-Trp-Cys-NHNH2; configuration not given here)
inactive: dose: 12.5 mg/kg/injection, schedule: Q01DX009 (ip), vehicle: other 90 % of control | dose: 25.0 mg/kg/injection, schedule: Q01DX009 (ip), vehicle: other 94 % of control | dose: 50.0 mg/kg/injection, schedule: Q01DX009 (ip), vehicle: other 88 % of control | dose: 100.0 mg/kg/injection, schedule: Q01DX009 (ip), vehicle: other 98 % of control | dose: 200.0 mg/kg/injection, schedule: Q01DX009 (ip), vehicle: other 94 % of control

COc1cc2cc(-c3ccccn3)nc(N)c2cc1OC
inactive: [11] 100 % of control | [12] 101 % of control

CCOC(=O)C(/C=N/NS(=O)(=O)c1ccc(C)cc1)c1ccccc1 (stereo not drawn)
inactive: dose: 100.0 mg/kg/injection, schedule: Q04DX002 (ip), vehicle: saline 96 % of control | dose: 200.0 mg/kg/injection, schedule: Q04DX002 (ip), vehicle: saline 94 % of control | dose: 400.0 mg/kg/injection, schedule: Q04DX002 (ip), vehicle: saline 97 % of control

Cc1cc(C)c(OC(=O)N(CCCl)N=O)c(C)c1
inactive: dose: 3.12 mg/kg/injection, schedule: Q01DX001 (ip), vehicle: saline with Tween-80 111 % of control | dose: 6.25 mg/kg/injection, schedule: Q01DX001 (ip), vehicle: saline with Tween-80 116 % of control

CCOC(=O)c1cn(C)c2c1C(=O)C(C(=O)OCC)CCN2C(=O)OCC (stereo not drawn)
inactive: [8] 99 % of control | [9] 105 % of control | [10] 107 % of control

CCN(CCC#N)C(=O)c1cccc([N+](=O)[O-])c1
inactive: [13] 102 % of control | [14] 94 % of control

CCOC(=O)COc1ccc(/C=C(\C)[N+](=O)[O-])c2ccccc12
inactive: [8] 99 % of control | [9] 91 % of control | [10] 100 % of control

CC(=O)OC1C2OC3C=C(C)CCC3(CO)C(C)(C1O)C21CO1 (stereo not drawn)
inactive: dose: 0.5 mg/kg/injection, schedule: Q01DX009 (ip), vehicle: saline 95 % of control | dose: 1.0 mg/kg/injection, schedule: Q01DX009 (ip), vehicle: saline 96 % of control | dose: 2.0 mg/kg/injection, schedule: Q01DX009 (ip), vehicle: saline 106 % of control | dose: 4.0 mg/kg/injection, schedule: Q01DX009 (ip), vehicle: saline 112 % of control

Nc1ccccc1Nc1c([N+](=O)[O-])cc(C(F)(F)F)cc1[N+](=O)[O-]
inactive: [13] 103 % of control | [14] 105 % of control | dose: 240.0 mg/kg/injection, schedule: Q01DX005 (ip), vehicle: Klucel (hydroxypropylcellulose) (HPC) 90 % of control

COc1ccc2c3c(c(=O)n(C)c2c1OC)C=CC(C)(C)O3
inactive: [6] 94 % of control | [7] 100 % of control | [15] 100 % of control | [16] 88 % of control

COc1ccc2c(=O)c(S)coc2c1
inactive: [11] 100 % of control | [12] 101 % of control | dose: 240.0 mg/kg/injection, schedule: Q01DX005 (ip), vehicle: saline with Tween-80 100 % of control

COc1ccc(/C(=C/c2ccc([N+](=O)[O-])cc2)C(=O)O)cc1
inactive: [7] 105 % of control | [15] 105 % of control | [16] 105 % of control

CC1OC(C)(C)OC1C(=O)OCc1ccccc1 (stereo not drawn)
inactive: dose: 25.0 mg/kg/injection, schedule: Q01DX005 (ip), vehicle: water 96 % of control | dose: 50.0 mg/kg/injection, schedule: Q01DX005 (ip), vehicle: water 105 % of control | dose: 100.0 mg/kg/injection, schedule: Q01DX005 (ip), vehicle: water 100 % of control | dose: 200.0 mg/kg/injection, schedule: Q01DX005 (ip), vehicle: water 100 % of control | dose: 400.0 mg/kg/injection, schedule: Q01DX005 (ip), vehicle: water 100 % of control

CCN(CC)Cc1cc(C(=O)CC(c2ccccc2)S(=O)(=O)c2ccc(C)cc2)ccc1O (stereo not drawn)
inactive: dose: 1.56 mg/kg/injection, schedule: Q01DX009 (ip), vehicle: saline 100 % of control | dose: 3.12 mg/kg/injection, schedule: Q01DX009 (ip), vehicle: saline 94 % of control | dose: 6.25 mg/kg/injection, schedule: Q01DX009 (ip), vehicle: saline 97 % of control | dose: 50.0 mg/kg/injection, schedule: Q01DX009 (ip), vehicle: saline 90 % of control

COc1ccc(C(=O)C(CN2CCOCC2)CN2CCOCC2)cc1
inactive: dose: 60.0 mg/kg/injection, schedule: Q01DX005 (ip), vehicle: saline 96 % of control | dose: 120.0 mg/kg/injection, schedule: Q01DX005 (ip), vehicle: saline 111 % of control

CCCCC(C)N(CCNc1cc(OC)cc2cccnc12)CC(C)C (stereo not drawn)
inactive: dose: 12.5 mg/kg/injection, schedule: Q01DX005 (ip), vehicle: saline 106 % of control | dose: 25.0 mg/kg/injection, schedule: Q01DX005 (ip), vehicle: saline 101 % of control | dose: 50.0 mg/kg/injection, schedule: Q01DX005 (ip), vehicle: saline 106 % of control and 97 % of control

COC1=CC(=O)C(=O)C(C(C)(C)C)=C1
inactive: dose: 15.0 mg/kg/injection, schedule: Q01DX005 (ip), vehicle: Klucel (hydroxypropylcellulose) (HPC) 104 % of control | dose: 30.0 mg/kg/injection, schedule: Q01DX005 (ip), vehicle: Klucel (hydroxypropylcellulose) (HPC) 86 % of control

C/C(=N\OC(=O)c1ccccc1)c1ccccc1
inactive: dose: 100.0 mg/kg/injection, schedule: Q04DX003 (ip), vehicle: saline 102 % of control | dose: 200.0 mg/kg/injection, schedule: Q04DX003 (ip), vehicle: saline 102 % of control | dose: 400.0 mg/kg/injection, schedule: Q04DX003 (ip), vehicle: saline 100 % of control

COC(=O)c1cccc2c[n+]3c(cc12)-c1[nH]c2cc(OC)ccc2c1CC3
inactive: [1] 100 % of control | [2] 99 % of control | [3] 108 % of control
